Measurements as given in paper PMC6472001, “Phenolic Compounds from Humulus lupulus as Natural Antimicrobial Products: New Weapons in the Fight against Methicillin Resistant Staphylococcus aureus, Leishmania mexicana and Trypanosoma brucei Strains” (Molecules, 2019).

Columns and labels:
Type in all cases: cell-based
[1] = tested on: Citrobacter freundii 11041; experiment: First screening, agar dilution MIC
Description: (§1) Clinical bacterial isolates from human samples collected in Lille (France) and some collection strains were used. The first screening step on pathogenic bacteria was carried out with crude hydro-alcoholic extracts of different hop parts (Table 1). The second screening was performed using sub-extracts of cones on Gram-positive bacteria, including methicillin-sensitive Staphylococcus aureus (MSSA) and methicillin-resistant Staphylococcus aureus […] (Table 2). These tests were carried out on Petri dishes, Mueller-Hinton Agar (MHA) (Oxoid, UK) was mixed with the plant extract solution in MeOH at 5% (solvent control: 5% MeOH). Final extract concentrations in Petri dishes ranged from 1250 to 4.9 µg/mL. A multi-headed inoculator allowed spotting bacterial strains at 10^5 CFU/mL in cysteinated Ringer (CR) solution (Merck®, France). Minimal Inhibitory Concentrations (MICs) were visually determined after 24 h of incubation at 37 °C.

[2] = tested on: Enterobacter cloacae 11051; experiment: First screening, agar dilution MIC
Description: as §1

[3] = tested on: Klebsiella pneumoniae 11016; experiment: First screening, agar dilution MIC
Description: as §1

[4] = tested on: Salmonella sp. 11033; experiment: First screening, agar dilution MIC
Description: as §1

[5] = tested on: Staphylococcus aureus 8147; experiment: First screening, agar dilution MIC
Description: as §1

[6] = tested on: Enterococcus faecalis C159-6; experiment: First screening, agar dilution MIC
Description: as §1

[7] = tested on: Serratia marcescens 11057; experiment: First screening, agar dilution MIC
Description: as §1

[8] = tested on: Serratia marcescens 11056; experiment: First screening, agar dilution MIC
Description: as §1

[9] = tested on: Mycobacterium smegmatis 5003; experiment: First screening, agar dilution MIC
Description: as §1

[10] = tested on: Staphylococcus epidermidis 5001; experiment: First screening, agar dilution MIC
Description: as §1

[11] = tested on: Providencia stuartii 11038; experiment: First screening, agar dilution MIC
Description: as §1

[12] = tested on: Escherichia coli 8138; experiment: First screening, agar dilution MIC
Description: as §1

[13] = tested on: Pseudomonas aeruginosa ATCC 27583; experiment: First screening, agar dilution MIC
Description: as §1

[14] = tested on: Escherichia coli ATCC 25922; experiment: First screening, agar dilution MIC
Description: as §1

[15] = tested on: Klebsiella pneumoniae 11017; experiment: First screening, agar dilution MIC
Description: as §1

[16] = tested on: Escherichia coli 8157; experiment: First screening, agar dilution MIC
Description: as §1

[17] = tested on: Acinetobacter baumannii 9011; experiment: First screening, agar dilution MIC
Description: as §1

[18] = tested on: Streptococcus agalactiae T25-7; experiment: First screening, agar dilution MIC
Description: as §1

[19] = tested on: Pseudomonas aeruginosa 8131; experiment: First screening, agar dilution MIC
Description: as §1

[20] = tested on: Staphylococcus lugdunensis T26A3; experiment: First screening, agar dilution MIC
Description: as §1

[21] = tested on: Corynebacterium T25-17; experiment: First screening, agar dilution MIC
Description: as §1

[22] = tested on: Proteus mirabilis 11060; experiment: First screening, agar dilution MIC
Description: as §1

[23] = tested on: Streptococcus agalactiae T53C2; experiment: First screening, agar dilution MIC
Description: as §1

[24] = tested on: Stenotrophomonas maltophilia; experiment: First screening, agar dilution MIC
Description: as §1

[25] = tested on: Acinetobacter baumannii 9010; experiment: First screening, agar dilution MIC
Description: as §1

[26] = tested on: Enterococcus sp. 8153; experiment: First screening, agar dilution MIC
Description: as §1

[27] = tested on: Staphylococcus epidermidis 10282; experiment: First screening, agar dilution MIC
Description: as §1

[28] = tested on: Enterobacter cloacae 11050; experiment: First screening, agar dilution MIC
Description: as §1

[29] = tested on: Staphylococcus warneri T12A12; experiment: First screening, agar dilution MIC
Description: as §1

[30] = tested on: Staphylococcus aureus 8146; experiment: First screening, agar dilution MIC
Description: as §1

[31] = tested on: Enterobacter cloacae 11053; experiment: First screening, agar dilution MIC
Description: as §1

[32] = tested on: Citrobacter freundii 11042; experiment: First screening, agar dilution MIC
Description: as §1

[33] = tested on: Streptococcus dysgalactiae T46C14; experiment: First screening, agar dilution MIC
Description: as §1

[34] = tested on: Staphylococcus aureus T1.1; experiment: Second screening, agar dilution MIC
Description: as §1

[35] = tested on: Staphylococcus aureus T47A12; experiment: Second screening, agar dilution MIC
Description: as §1

[36] = tested on: Staphylococcus aureus 8147; experiment: Second screening, agar dilution MIC; conditions: Table 2
Description: as §1

[37] = tested on: Streptococcus agalactiae 13226; experiment: Second screening, agar dilution MIC
Description: as §1

[38] = tested on: Staphylococcus saprophyticus 08237; experiment: Second screening, agar dilution MIC
Description: as §1

[39] = tested on: Staphylococcus aureus T26A4; experiment: Second screening, agar dilution MIC
Description: as §1

[40] = tested on: Staphylococcus epidermidis 5001; experiment: Second screening, agar dilution MIC; conditions: Table 2
Description: as §1

[41] = tested on: Staphylococcus aureus T25.10; experiment: Second screening, agar dilution MIC
Description: as §1

[42] = tested on: Enterococcus faecalis T37A4; experiment: Second screening, agar dilution MIC
Description: as §1

[43] = tested on: Streptococcus agalactiae T25.7; experiment: Second screening, agar dilution MIC
Description: as §1

[44] = tested on: Staphylococcus aureus T6.7; experiment: Second screening, agar dilution MIC
Description: as §1

[45] = tested on: Staphylococcus aureus T28.1; experiment: Second screening, agar dilution MIC
Description: as §1

[46] = tested on: Staphylococcus aureus T25.9; experiment: Second screening, agar dilution MIC
Description: as §1

[47] = tested on: Staphylococcus pettenkoferi T3.3; experiment: Second screening, agar dilution MIC
Description: as §1

[48] = tested on: Staphylococcus lugdunensis T26A3; experiment: Second screening, agar dilution MIC; conditions: Table 2
Description: as §1

[49] = tested on: Streptococcus agalactiae T38.2; experiment: Second screening, agar dilution MIC
Description: as §1

[50] = tested on: Corynebacterium T25-17; experiment: Second screening, agar dilution MIC; conditions: Table 2
Description: as §1

[51] = tested on: Streptococcus agalactiae T40A2; experiment: Second screening, agar dilution MIC
Description: as §1

[52] = tested on: Staphylococcus aureus T25.3; experiment: Second screening, agar dilution MIC
Description: as §1

[53] = tested on: Staphylococcus aureus T36B1; experiment: Second screening, agar dilution MIC
Description: as §1

[54] = tested on: Enterococcus faecalis T34-2; experiment: Second screening, agar dilution MIC
Description: as §1

[55] = tested on: Enterococcus faecalis T26-B7; experiment: Second screening, agar dilution MIC
Description: as §1

[56] = tested on: Enterococcus faecalis T39-C11; experiment: Second screening, agar dilution MIC
Description: as §1

[57] = tested on: Staphylococcus aureus CIP 224; experiment: Second screening, agar dilution MIC
Description: as §1

[58] = tested on: Streptococcus agalactiae 13225; experiment: Second screening, agar dilution MIC
Description: as §1

SMILES: CN[C@H](CC(C)C)C(=O)N[C@H]1C(=O)N[C@@H](CC(N)=O)C(=O)N[C@H]2C(=O)N[C@H]3C(=O)N[C@H](C(=O)N[C@H](C(=O)O)c4cc(O)cc(O)c4-c4cc3ccc4O)[C@H](O)c3ccc(c(Cl)c3)Oc3cc2cc(c3O[C@@H]2O[C@H](CO)[C@@H](O)[C@H](O)[C@H]2O[C@H]2C[C@](C)(N)[C@H](O)[C@H](C)O2)Oc2ccc(cc2Cl)[C@H]1O [VAN, Vancomycin]
- Susceptibility to VAN [1]: R (R > 16)
- Susceptibility to VAN [2]: R (R > 16)
- Susceptibility to VAN [3]: R (R > 16)
- Susceptibility to VAN [4]: R (R > 16)
- Susceptibility to VAN [5]: S (Vancomycin (VAN) S ≤ 4)
- Susceptibility to VAN [6]: S (Vancomycin (VAN) S ≤ 4)
- Susceptibility to VAN [7]: R (R > 16)
- Susceptibility to VAN [8]: R (R > 16)
- Susceptibility to VAN [9]: S (Vancomycin (VAN) S ≤ 4)
- Susceptibility to VAN [10]: S (Vancomycin (VAN) S ≤ 4)
- Susceptibility to VAN [11]: R (R > 16)
- Susceptibility to VAN [12]: R (R > 16)
- Susceptibility to VAN [13]: R (R > 16)
- Susceptibility to VAN [14]: R (R > 16)
- Susceptibility to VAN [15]: R (R > 16)
- Susceptibility to VAN [16]: R (R > 16)
- Susceptibility to VAN [17]: R (R > 16)
- Susceptibility to VAN [18]: S (Vancomycin (VAN) S ≤ 4)
- Susceptibility to VAN [19]: R (R > 16)
- Susceptibility to VAN [20]: S (Vancomycin (VAN) S ≤ 4)
- Susceptibility to VAN [21]: S (Vancomycin (VAN) S ≤ 4)
- Susceptibility to VAN [22]: R (R > 16)
- Susceptibility to VAN [23]: S (Vancomycin (VAN) S ≤ 4)
- Susceptibility to VAN [24]: R (R > 16)
- Susceptibility to VAN [25]: R (R > 16)
- Susceptibility to VAN [26]: S (Vancomycin (VAN) S ≤ 4)
- Susceptibility to VAN [27]: S (Vancomycin (VAN) S ≤ 4)
- Susceptibility to VAN [28]: R (R > 16)
- Susceptibility to VAN [29]: R (R > 16)
- Susceptibility to VAN [30]: S (Vancomycin (VAN) S ≤ 4)
- Susceptibility to VAN [31]: R (R > 16)
- Susceptibility to VAN [32]: R (R > 16)
- Susceptibility to VAN [33]: S (Vancomycin (VAN) S ≤ 4)
- Susceptibility to VAN [34]: S (Vancomycin (VAN) S ≤ 4)
- Susceptibility to VAN [35]: S (Vancomycin (VAN) S ≤ 4)
- Susceptibility to VAN [36]: S (Vancomycin (VAN) S ≤ 4)
- Susceptibility to VAN [37]: S (Vancomycin (VAN) S ≤ 4)
- Susceptibility to VAN [38]: S (Vancomycin (VAN) S ≤ 4)
- Susceptibility to VAN [39]: S (Vancomycin (VAN) S ≤ 4)
- Susceptibility to VAN [40]: S (Vancomycin (VAN) S ≤ 4)
- Susceptibility to VAN [41]: S (Vancomycin (VAN) S ≤ 4)
- Susceptibility to VAN [42]: S (Vancomycin (VAN) S ≤ 4)
- Susceptibility to VAN [43]: S (Vancomycin (VAN) S ≤ 4)
- Susceptibility to VAN [44]: S (Vancomycin (VAN) S ≤ 4)
- Susceptibility to VAN [45]: S (Vancomycin (VAN) S ≤ 4)
- Susceptibility to VAN [46]: S (Vancomycin (VAN) S ≤ 4)
- Susceptibility to VAN [47]: S (Vancomycin (VAN) S ≤ 4)
- Susceptibility to VAN [48]: S (Vancomycin (VAN) S ≤ 4)
- Susceptibility to VAN [49]: S (Vancomycin (VAN) S ≤ 4)
- Susceptibility to VAN [50]: S (Vancomycin (VAN) S ≤ 4)
- Susceptibility to VAN [51]: S (Vancomycin (VAN) S ≤ 4)
- Susceptibility to VAN [52]: S (Vancomycin (VAN) S ≤ 4)
- Susceptibility to VAN [53]: S (Vancomycin (VAN) S ≤ 4)
- Susceptibility to VAN [54]: S (Vancomycin (VAN) S ≤ 4)
- Susceptibility to VAN [55]: S (Vancomycin (VAN) S ≤ 4)
- Susceptibility to VAN [56]: S (Vancomycin (VAN) S ≤ 4)
- Susceptibility to VAN [57]: S (Vancomycin (VAN) S ≤ 4)
- Susceptibility to VAN [58]: S (Vancomycin (VAN) S ≤ 4)
